Source: patent US4489163A, “rCRF and analogs” (The Salk Institute for Biological Studies, priority 1983, dated 1984)
Where a SMILES comes first, the peptide text is derived from it. [ ]: non-standard residue; d: D form. The star is where a group is joined. Nle = CCCC[C@H](N)C(=O)O; Bz = O=C(c1ccccc1)*

Key:
[1] = mammals; reported; cited from earlier work
[2] = system: secretion of ACTH and β-endorphin; settings: reported; cited from earlier work
[3] = system: ACTH and β-endorphin-like (β-END-LI) secretion; assay: ACTH and β-END-LI secretion in vivo after intravenous administration; set-up: species or system rats; settings: for stimulation of secretion of ACTH and β-END-LI: general procedure of Example III, in vitro or in vivo not stated
Source text: (§1) The synthetic and the natural rCRF were examined for their effects on the secretion of ACTH and β-endorphin in vitro and the synthetic rCRF was also examined in vivo.

[4] = lowering of blood pressure in rats; type: in vivo; settings: for lowering of blood pressure: species not given, general procedure of Example III; for lowering of blood pressure compared with rCRF: relative to rCRF, species not stated
[5] = system: cultured rat pituitary cells; assay: secretion of ACTH and β-endorphin by cultured rat pituitary cells in vitro; type: cell-based; settings: in vitro
Source text: as §1

Compound | stimulation of secretion of ACTH and β-END-LI [3] | lowering of blood pressure [4] | further results
CC[C@H](C)[C@H](NC(=O)[C@@H](NC(=O)[C@H](CC(=O)O)NC(=O)[C@H](CC(C)C)NC(=O)[C@H](CC(C)C)NC(=O)[C@H](CC(C)C)NC(=O)[C@H](CCCNC(=N)N)NC(=O)[C@H](CC(N)=O)NC(=O)[C@H](CC(N)=O)NC(=O)[C@H](C)NC(=O)[C@H](C)NC(=O)[C@H](CCC(N)=O)NC(=O)[C@H](CCC(N)=O)NC(=O)[C@H](CCCCN)NC(=O)[C@H](CCC(=O)O)NC(=O)[C@H](CCCCN)NC(=O)[C@H](CCC(=O)O)NC(=O)[C@H](CCC(N)=O)NC(=O)[C@H](CCCCN)NC(=O)[C@H](CCC(=O)O)NC(=O)[C@@H](NC(=O)[C@H](CCC(=O)O)NC(=O)[C@@H](NC(=O)[C@H](CCSC)NC(=O)[C@H](CCCCN)NC(=O)[C@H](CCCNC(=N)N)NC(=O)[C@H](CC(C)C)NC(=O)[C@H](CC(C)C)NC(=O)[C@H](CCC(=O)O)NC(=O)[C@H](CC(C)C)NC(=O)[C@H](CO)NC(=O)[C@H](CC(C)C)NC(=O)[C@H](CC(=O)O)NC(=O)[C@@H](NC(=O)[C@H](CO)NC(=O)[C@@H](NC(=O)[C@@H]1CCCN1C(=O)[C@@H]1CCCN1C(=O)CNC(=O)[C@@H]1CCC(=O)N1)[C@@H](C)CC)[C@@H](C)CC)[C@@H](C)CC)[C@@H](C)CC)[C@@H](C)O)C(N)=O [Sauvagine] |  |  | biological activity in lowering blood pressure [1]: biological activity in lowering blood pressure in mammals; biological activity in stimulating the secretion of ACTH and β-endorphin [2]: stimulating the secretion of ACTH and β-endorphin
CCCC[C@H](NC(=O)[C@@H](NC(=O)[C@H](CC(C)C)NC(=O)[C@H](CC(=O)O)NC(=O)[C@H](CC(C)C)NC(=O)[C@H](CO)NC(=O)[C@@H](NC(=O)[C@@H]1CCCN1C(=O)[C@@H]1CCCN1C(=O)[C@H](CCC(=O)O)NC(=O)CNC(=O)c1ccccc1)[C@@H](C)CC)[C@@H](C)O)C(=O)N[C@@H](Cc1c[nH]cn1)C(=O)N[C@@H](CC(C)C)C(=O)N[C@@H](CC(C)C)C(=O)N[C@@H](CCCNC(=N)N)C(=O)N[C@@H](CCC(=O)O)C(=O)N[C@H](C(=O)N[C@@H](CC(C)C)C(=O)N[C@@H](CCC(=O)O)C(=O)N[C@@H](CCSC)C(=O)N[C@@H](C)C(=O)N[C@@H](CCCNC(=N)N)C(=O)N[C@@H](C)C(=O)N[C@@H](CCC(=O)O)C(=O)N[C@@H](CCC(N)=O)C(=O)N[C@@H](CC(C)C)C(=O)N[C@@H](C)C(=O)N[C@@H](CCC(N)=O)C(=O)N[C@@H](CCC(N)=O)C(=O)N[C@@H](C)C(=O)N[C@@H](Cc1c[nH]cn1)C(=O)N[C@@H](CO)C(=O)N[C@@H](CC(N)=O)C(=O)N[C@@H](CCCNC(=N)N)C(=O)N[C@@H](CCCCN)C(=O)N[C@@H](CC(C)C)C(=O)N[C@@H](CCSC)C(=O)N[C@@H](CCC(=O)O)C(=O)N[C@H](C(=O)N[C@H](C(N)=O)[C@@H](C)CC)[C@@H](C)CC)C(C)C [XII] (Bz-GEPPISLDLT[Nle]HLLREVLEMARAEQLAQQAHSNRKLMEII-NH2) | stimulates the secretion of ACTH and β-END-LI | very significant lowering of blood pressure | 
CC[C@H](C)[C@H](NC(=O)[C@@H](NC(=O)[C@H](CC(=O)O)NC(=O)[C@H](CCSC)NC(=O)[C@H](CC(C)C)NC(=O)[C@H](CC(C)C)NC(=O)[C@H](CCCNC(=N)N)NC(=O)[C@H](CC(N)=O)NC(=O)[C@H](CC(N)=O)NC(=O)[C@H](C)NC(=O)[C@H](C)NC(=O)[C@H](CCC(N)=O)NC(=O)[C@H](CCC(N)=O)NC(=O)[C@H](CCCCN)NC(=O)[C@H](CC(C)C)NC(=O)[C@H](CCCCN)NC(=O)[C@H](CCC(=O)O)NC(=O)[C@H](CCC(N)=O)NC(=O)[C@H](CCCCN)NC(=O)[C@H](CCC(=O)O)NC(=O)[C@@H](NC(=O)[C@H](CCC(=O)O)NC(=O)[C@@H](NC(=O)[C@H](CCSC)NC(=O)[C@H](CCCCN)NC(=O)[C@H](CCCNC(=N)N)NC(=O)[C@H](CC(C)C)NC(=O)[C@H](CC(C)C)NC(=O)[C@H](CCC(=O)O)NC(=O)[C@H](CC(C)C)NC(=O)[C@H](CO)NC(=O)[C@H](CC(C)C)NC(=O)[C@H](CC(=O)O)NC(=O)[C@@H](NC(=O)[C@H](CO)NC(=O)[C@@H](NC(=O)[C@@H]1CCCN1C(=O)[C@@H]1CCCN1C(=O)CNC(=O)[C@@H]1CCC(=O)N1)[C@@H](C)CC)[C@@H](C)CC)[C@@H](C)CC)[C@@H](C)CC)[C@@H](C)O)C(N)=O [XVIII] | stimulates the secretion of ACTH and β-END-LI | very significant lowering of blood pressure | 
CC[C@H](C)[C@H](NC(=O)[C@@H](NC(=O)[C@H](CC(=O)O)NC(=O)[C@H](CC(C)C)NC(=O)[C@H](CC(C)C)NC(=O)[C@H](CC(C)C)NC(=O)[C@H](CCCNC(=N)N)NC(=O)[C@H](CC(N)=O)NC(=O)[C@H](CC(N)=O)NC(=O)[C@H](C)NC(=O)[C@H](C)NC(=O)[C@H](CCC(N)=O)NC(=O)[C@H](CCC(N)=O)NC(=O)[C@H](CCCCN)NC(=O)[C@H](CCC(=O)O)NC(=O)[C@H](CCCCN)NC(=O)[C@H](CCC(=O)O)NC(=O)[C@H](CCC(N)=O)NC(=O)[C@H](CCCCN)NC(=O)[C@H](CCCNC(=N)N)NC(=O)[C@H](C)NC(=O)[C@H](CCC(=O)O)NC(=O)[C@@H](NC(=O)[C@H](CCSC)NC(=O)[C@H](CCCCN)NC(=O)[C@H](CCCNC(=N)N)NC(=O)[C@H](CC(C)C)NC(=O)[C@H](CC(C)C)NC(=O)[C@H](CCC(=O)O)NC(=O)[C@H](CC(C)C)NC(=O)[C@H](CO)NC(=O)[C@H](CC(C)C)NC(=O)[C@H](CC(=O)O)NC(=O)[C@@H](NC(=O)[C@H](CO)NC(=O)[C@@H](NC(=O)[C@@H]1CCCN1C(=O)[C@@H]1CCCN1C(=O)CNC(=O)[C@@H]1CCC(=O)N1)[C@@H](C)CC)[C@@H](C)CC)[C@@H](C)CC)[C@@H](C)CC)C(N)=O [XVII] | stimulates the secretion of ACTH and β-END-LI | very significant lowering of blood pressure | 
CC[C@H](C)[C@H](NC(=O)[C@@H](NC(=O)[C@H](CCC(=O)O)NC(=O)[C@H](CCSC)NC(=O)[C@H](CC(C)C)NC(=O)[C@H](CCCCN)NC(=O)[C@H](CCCNC(=N)N)NC(=O)[C@H](CC(N)=O)NC(=O)[C@H](CO)NC(=O)[C@H](Cc1c[nH]cn1)NC(=O)[C@H](C)NC(=O)[C@H](CCC(N)=O)NC(=O)[C@H](CCC(N)=O)NC(=O)[C@H](C)NC(=O)[C@H](CC(C)C)NC(=O)[C@H](CCC(N)=O)NC(=O)[C@H](CCC(=O)O)NC(=O)[C@H](C)NC(=O)[C@H](CCCNC(=N)N)NC(=O)[C@H](C)NC(=O)[C@H](CCSC)NC(=O)[C@H](CCC(=O)O)NC(=O)[C@H](CC(C)C)NC(=O)[C@@H](NC(=O)[C@H](CCC(=O)O)NC(=O)[C@H](CCCNC(=N)N)NC(=O)[C@H](CC(C)C)NC(=O)[C@H](CC(C)C)NC(=O)[C@H](Cc1c[nH]cn1)NC(=O)[C@H](Cc1ccccc1)NC(=O)[C@@H](NC(=O)[C@H](CC(C)C)NC(=O)[C@H](CC(=O)O)NC(=O)[C@H](CC(C)C)NC(=O)[C@H](CO)NC(=O)[C@@H](NC(=O)[C@@H]1CCCN1C(=O)[C@@H]1CCCN1C(=O)[C@H](CCC(=O)O)NC(=O)[C@H](CCC(=O)O)NC(=O)[C@@H](N)CO)[C@@H](C)CC)[C@@H](C)O)C(C)C)[C@@H](C)CC)C(N)=O [natural rCRF] |  |  | stimulation of secretion of ACTH and β-endorphin in vitro [5]: high potency; stimulation of secretion of ACTH and β-endorphin in vitro ([5]; listed as isolated rCRF): stimulate ACTH and β-endorphin activies; stimulation of ACTH and β-END-LI secretion in vivo (words) ([3]; in vivo, several rat preparations, listed as isolated rCRF): stimulate ACTH and β-endorphin activies
Ac-PPISLDLTFHLLREVLEMARAEQLAQQAHSNRKLMDII-NH2 [XIII] | stimulates the secretion of ACTH and β-END-LI | very significant lowering of blood pressure | lowering of blood pressure compared with rCRF [4]: to a greater extent than rCRF
H-PPISIDLSLELLRKMIEIAKQEKEKQQAANNRLLMDTI-NH2 [XVI] | stimulates the secretion of ACTH and β-END-LI | very significant lowering of blood pressure | 
H-SEEPPISLDLTFELLREVLEVARAEQLAQQAHSNRKLMEII-NH2 [IX] | stimulates the secretion of ACTH and β-END-LI | very significant lowering of blood pressure | lowering of blood pressure compared with rCRF [4]: to a great extent than rCRF
H-SEEPPISLDLTFHLLREVAEMTRAEQLAQQAHSNRKLMEII-NH2 [VII] | stimulates the secretion of ACTH and β-END-LI | very significant lowering of blood pressure | 
H-SEEPPISLDLTFHLLREVLEAARAEQLAQQAHSNRKLLEI[Nle]-NH2 [XI] | stimulates the secretion of ACTH and β-END-LI | very significant lowering of blood pressure | 
H-SEEPPISLDLTFHLLREVLE[Nle]ARAEQLAQQAYSNRKLMEII-NH2 [XV] | stimulates the secretion of ACTH and β-END-LI | very significant lowering of blood pressure | lowering of blood pressure compared with rCRF [4]: to a greater extent than rCRF
H-SEEPPIS[Nle]DLSFHLLREVLEMARAEQLAQQAHLNRKLMEII-NH2 [X] | stimulates the secretion of ACTH and β-END-LI | very significant lowering of blood pressure | 
H-SQEPPISLDLTFHLLREVLEMAKAEQLAQQAHSNRKLLEII-NH2 [XIV] | stimulates the secretion of ACTH and β-END-LI | very significant lowering of blood pressure | 
H-Ser-Gln-Glu-Pro-Pro-Ile-Ser-Leu-Asp-Leu-Thr-Phe-His-Leu-Leu-Arg-Glu-Val-Leu-Glu-Met-Thr-Lys-Ala-Asp-Gln-Leu-Ala-Gln-Gln-Ala-His-Ser-Asn-Arg-Lys-Leu- Leu-Asp-Ile-Ala-NH2 (H-SQEPPISLDLTFHLLREVLEMTKADQLAQQAHSNRKLLDIA-NH2) [oCRF, ovine corticotropin releasing factor characterized in 1981] |  |  | biological activity in lowering blood pressure [1]: biological activity in lowering blood pressure in mammals; biological activity in stimulating the secretion of ACTH and β-endorphin [2]: stimulating the secretion of ACTH and β-endorphin
